According to patent US20120101148A1, “LIPID FORMULATION” (ALNYLAM PHARMACEUTICALS, INC., priority 2009, published 2012):

Test: Stability assay of Lipid A liposomes (LC-ELSD)
Settings: for degradation of Lipid A in liposome formulation containing antioxidant: pH=5, 37° C., day 5
Protocol: The stability of lipids in formulation were performed and monitored using the following HPLC and ELSD (Evaporative Light Scattering Detector) conditions.
Column: Waters Xbridge C18 2.5 μm 2.1×150 mm reversed phase column
Model: Polymer lab ELS 2100
Evaporator temperature: 90
Nebuliser temperature: 60
Fresh Lipid A liposome samples with loaded siRNA AD1661 were prepared as described herein. These Lipid A liposome samples were incubated in 100 mM NaOAc buffer (pH=5) at 37° C., and were subject to LC-ELSD analysis every other day.
In order to examine whether degradation of Lipid A can be prevented by addition of radical scavengers such as butylated hydroxytoluene (BHT or butylhydroxytoluene), Lipid A-containing liposome formulation LNP08 with lipids molar ratio of 60/7.5/31/1.5 (lipid A/DSPC/Cholesterol/PEG-C14 lipid) loaded with siRNA AD1661 containing BHT was tested in the stability assay as described above. These samples were subject to LC-ELSD analysis at day 5.
In order to examine whether the degradation of Lipid A can be prevented by antioxidants such as vitamin E, Lipid A-containing liposome formulation LNP09 loaded with siRNA AD1661 containing various amount of vitamin E were tested in the stability assay as described above. These samples were subject to LC-ELSD analysis at day 5. Chromatographs comparing the stability of various Lipid A liposome formulations with or without vitamin E were shown in FIG. 34.

degradation of Lipid A, higher amount of antioxidant (LNP09, pH=5, day 5)	degradation of Lipid A in liposome formulation containing antioxidant	Molecule
reverse effect	inhibited	vitamin E
	inhibited	Cc1cc(C(C)(C)C)c(O)c(C(C)(C)C)c1 [BHT, butylated hydroxytoluene]
